Earlier results, collected in patent publication US20250369985A1, “METHOD FOR DETERMINING THE THERAPEUTIC REGIMEN FOR AN INDIVIDUAL AND ITS USE” (MOSAIQUES DIAGNOSTICS AND THERAPEUTICS AG, priority 2022, published 2025).
Like-named read-outs stand apart in the source and are kept apart here.

Test system: urinary proteins/peptides (71 biomarkers of CD71 classifier)

SMILES: CC(=O)S[C@@H]1CC2=CC(=O)CC[C@]2(C)[C@H]2CC[C@@]3(C)[C@@H](CC[C@@]34CCC(=O)O4)[C@H]12 [drug B, Spironolactone]
- f (fold-change of the abundance) (peptide 99900220 (Seq. ID No. 1)): 1
- f (fold-change of the abundance) (peptide 99900467 (Seq. ID No. 2)): 1
- f (fold-change of the abundance) (peptide 99901399 (Seq. ID No. 3)): 1
- f (fold-change of the abundance) (peptide 99902592 (Seq. ID No. 4)): 1
- f (fold-change of the abundance) (peptide 99903025 (Seq. ID No. 5)): 1
- f (fold-change of the abundance) (peptide 99904405 (Seq. ID No. 6)): 1
- f (fold-change of the abundance) (peptide 99904666 (Seq. ID No. 7)): 1
- f (fold-change of the abundance) (peptide 99904862 (Seq. ID No. 8)): 1
- f (fold-change of the abundance) (peptide 99905044 (Seq. ID No. 9)): 1
- f (fold-change of the abundance) (peptide 99905259 (Seq. ID No. 10)): 1
- f (fold-change of the abundance) (peptide 99905274 (Seq. ID No. 11)): 1
- f (fold-change of the abundance) (peptide 99905379 (Seq. ID No. 12)): 1
- f (fold-change of the abundance) (peptide 99905423 (Seq. ID No. 13)): 1
- f (fold-change of the abundance) (peptide 99905509 (Seq. ID No. 14)): 0.77
- f (fold-change of the abundance) (peptide 99905551 (Seq. ID No. 15)): 1.97
- f (fold-change of the abundance) (peptide 99906176 (Seq. ID No. 16)): 1
- f (fold-change of the abundance) (peptide 99907275 (Seq. ID No. 17)): 1
- f (fold-change of the abundance) (peptide 99907807 (Seq. ID No. 18)): 1
- f (fold-change of the abundance) (peptide 99908755 (Seq. ID No. 19)): 1
- f (fold-change of the abundance) (peptide 99908795 (Seq. ID No. 20)): 1
- f (fold-change of the abundance) (peptide 99908916 (Seq. ID No. 21)): 1
- f (fold-change of the abundance) (peptide 99909059 (Seq. ID No. 22)): 1
- f (fold-change of the abundance) (peptide 99910002 (Seq. ID No. 23)): 1
- f (fold-change of the abundance) (peptide 99910032 (Seq. ID No. 24)): 1
- f (fold-change of the abundance) (peptide 99910407 (Seq. ID No. 25)): 1
- f (fold-change of the abundance) (peptide 99910483 (Seq. ID No. 26)): 0.78
- f (fold-change of the abundance) (peptide 99910554 (Seq. ID No. 27)): 1
- f (fold-change of the abundance) (peptide 99910883 (Seq. ID No. 28)): 1
- f (fold-change of the abundance) (peptide 99911002 (Seq. ID No. 29)): 1
- f (fold-change of the abundance) (peptide 99911193 (Seq. ID No. 30)): 1
- f (fold-change of the abundance) (peptide 99911415 (Seq. ID No. 31)): 1
- f (fold-change of the abundance) (peptide 99911559 (Seq. ID No. 32)): 1
- f (fold-change of the abundance) (peptide 99911777 (Seq. ID No. 33)): 1
- f (fold-change of the abundance) (peptide 99912101 (Seq. ID No. 34)): 1
- f (fold-change of the abundance) (peptide 99912211 (Seq. ID No. 35)): 1
- f (fold-change of the abundance) (peptide 99912366 (Seq. ID No. 36)): 1.5
- f (fold-change of the abundance) (peptide 99912411 (Seq. ID No. 37)): 1
- f (fold-change of the abundance) (peptide 99912661 (Seq. ID No. 38)): 1
- f (fold-change of the abundance) (peptide 99913200 (Seq. ID No. 39)): 1.21
- f (fold-change of the abundance) (peptide 99913322 (Seq. ID No. 40)): 1
- f (fold-change of the abundance) (peptide 99913825 (Seq. ID No. 41)): 0.65
- f (fold-change of the abundance) (peptide 99914211 (Seq. ID No. 42)): 1
- f (fold-change of the abundance) (peptide 99914445 (Seq. ID No. 43)): 1
- f (fold-change of the abundance) (peptide 99914876 (Seq. ID No. 44)): 1.5
- f (fold-change of the abundance) (peptide 99914887 (Seq. ID No. 45)): 1
- f (fold-change of the abundance) (peptide 99914893 (Seq. ID No. 46)): 1
- f (fold-change of the abundance) (peptide 99914935 (Seq. ID No. 47)): 0.72
- f (fold-change of the abundance) (peptide 99915015 (Seq. ID No. 48)): 1
- f (fold-change of the abundance) (peptide 99915755 (Seq. ID No. 49)): 1
- f (fold-change of the abundance) (peptide 99915778 (Seq. ID No. 50)): 1
- f (fold-change of the abundance) (peptide 99915883 (Seq. ID No. 51)): 1
- f (fold-change of the abundance) (peptide 99916170 (Seq. ID No. 52)): 1
- f (fold-change of the abundance) (peptide 99916177 (Seq. ID No. 53)): 1.88
- f (fold-change of the abundance) (peptide 99916611 (Seq. ID No. 54)): 1
- f (fold-change of the abundance) (peptide 99916615 (Seq. ID No. 55)): 1
- f (fold-change of the abundance) (peptide 99916966 (Seq. ID No. 56)): 1
- f (fold-change of the abundance) (peptide 99917047 (Seq. ID No. 57)): 0.82
- f (fold-change of the abundance) (peptide 99917221 (Seq. ID No. 58)): 1
- f (fold-change of the abundance) (peptide 99917280 (Seq. ID No. 59)): 1
- f (fold-change of the abundance) (peptide 99917288 (Seq. ID No. 60)): 1
- f (fold-change of the abundance) (peptide 99917419 (Seq. ID No. 61)): 1
- f (fold-change of the abundance) (peptide 99917505 (Seq. ID No. 62)): 1
- f (fold-change of the abundance) (peptide 99917596 (Seq. ID No. 63)): 1
- f (fold-change of the abundance) (peptide 99917626 (Seq. ID No. 64)): 1
- f (fold-change of the abundance) (peptide 99917690 (Seq. ID No. 65)): 1
- f (fold-change of the abundance) (peptide 99917825 (Seq. ID No. 66)): 1
- f (fold-change of the abundance) (peptide 99917890 (Seq. ID No. 67)): 1
- f (fold-change of the abundance) (peptide 99917947 (Seq. ID No. 68)): 1
- f (fold-change of the abundance) (peptide 99918831 (Seq. ID No. 69)): 1.27
- f (fold-change of the abundance) (peptide 99918906 (Seq. ID No. 70)): 1
- f (fold-change of the abundance) (peptide 99918909 (Seq. ID No. 71)): 0.62
